# Reference: ChEMBL document CHEMBL1201862, “PubChem BioAssay data set” (2004)
# Calls of active or inactive are those of the source.
# Columns and labels:
# [1] = inhibition of ADAM10 peptide cleavage – biochemical, FRET peptide substrate, recombinant human ADAM10, selectivity assay for ADAM17 exosite inhibitor project, dose response (AID 743259);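 further: ADAM10 enzyme cleaving a FRET peptide substrate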
# [2] = target: Disintegrin and metalloproteinase domain-containing protein 17 (Homo sapiens, UniProt P78536); assay: exosite inhibitors of ADAM17, dose response, biochemical (AID 743260)
# [3] = HEK-293T cell viability reduction – luminescence, B-cell screen hits, cytotoxicity control for BCR NF-kB inhibitor project, dose response (AID 489021); format: functional, cell-based;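 further: HEK-293T cells carrying an NF-kB luciferase reporter; cells exposed to compound for about 14 hours before viability readout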
# Prothrombin = Prothrombin (Homo sapiens, UniProt P00734); assay: Thrombin 1536 HTS Dose Response Confirmation. [Related pubchem assays: 1046 (Thrombin 1536 HTS; hits were confirmed in this assay)]; format: functional
# [4] = target: Ras and Rab interactor 1/Tyrosine-protein kinase ABL1 (Homo sapiens, UniProt P00519+Q13671); format: functional;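 further: biochemical TR-FRET dose-response test measuring inhibition of binding between Rin1 and Abl proteins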
# Paired box protein Pax-8 = Paired box protein Pax-8 (Homo sapiens, UniProt Q06710); assay: PAX8 transcriptional activity inhibition in RMG-I – RMG-I cells, luciferase, cherry-pick, dose response (AID 687027); format: functional, cell-based;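 further: luciferase reporter driven by Pax8 target thyroperoxidase promoter measured by SteadyGlo luminescence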
# [5] = OVCAR-3 cell viability loss – plate reader, dry powder samples, PAX8 inhibitor project, dose response (AID 743044); format: functional, cell-based
# [6] = OVCAR8 cell viability loss – plate reader, dry powder samples, PAX8 project, dose response (AID 743197); format: functional, cell-based; details: OVCAR-8
# [7] = P. falciparum Dd2 growth inhibitors, dose response, SYBR Green, cherry-picked samples (AID 1159567); format: functional, cell-based
# [8] = viability of uninfected HEp-2 cells – cell-based, HTS, cytotoxicity control for RSV inhibitor project, dose response (AID 2410); format: functional; details: human respiratory syncytial virus
# Vero = assay: cells; format: functional, cell-based; details: Chlorocebus sabaeus
# [9] = Luminescence-based cell-based high throughput dose response assay to identify activators of the DAF-12 from the parasite S. stercoralis (ssDAF-12).; format: functional
# Ras and Rab interactor 1/Tyrosine-protein kinase ABL1, sequence (P00519 whole entry): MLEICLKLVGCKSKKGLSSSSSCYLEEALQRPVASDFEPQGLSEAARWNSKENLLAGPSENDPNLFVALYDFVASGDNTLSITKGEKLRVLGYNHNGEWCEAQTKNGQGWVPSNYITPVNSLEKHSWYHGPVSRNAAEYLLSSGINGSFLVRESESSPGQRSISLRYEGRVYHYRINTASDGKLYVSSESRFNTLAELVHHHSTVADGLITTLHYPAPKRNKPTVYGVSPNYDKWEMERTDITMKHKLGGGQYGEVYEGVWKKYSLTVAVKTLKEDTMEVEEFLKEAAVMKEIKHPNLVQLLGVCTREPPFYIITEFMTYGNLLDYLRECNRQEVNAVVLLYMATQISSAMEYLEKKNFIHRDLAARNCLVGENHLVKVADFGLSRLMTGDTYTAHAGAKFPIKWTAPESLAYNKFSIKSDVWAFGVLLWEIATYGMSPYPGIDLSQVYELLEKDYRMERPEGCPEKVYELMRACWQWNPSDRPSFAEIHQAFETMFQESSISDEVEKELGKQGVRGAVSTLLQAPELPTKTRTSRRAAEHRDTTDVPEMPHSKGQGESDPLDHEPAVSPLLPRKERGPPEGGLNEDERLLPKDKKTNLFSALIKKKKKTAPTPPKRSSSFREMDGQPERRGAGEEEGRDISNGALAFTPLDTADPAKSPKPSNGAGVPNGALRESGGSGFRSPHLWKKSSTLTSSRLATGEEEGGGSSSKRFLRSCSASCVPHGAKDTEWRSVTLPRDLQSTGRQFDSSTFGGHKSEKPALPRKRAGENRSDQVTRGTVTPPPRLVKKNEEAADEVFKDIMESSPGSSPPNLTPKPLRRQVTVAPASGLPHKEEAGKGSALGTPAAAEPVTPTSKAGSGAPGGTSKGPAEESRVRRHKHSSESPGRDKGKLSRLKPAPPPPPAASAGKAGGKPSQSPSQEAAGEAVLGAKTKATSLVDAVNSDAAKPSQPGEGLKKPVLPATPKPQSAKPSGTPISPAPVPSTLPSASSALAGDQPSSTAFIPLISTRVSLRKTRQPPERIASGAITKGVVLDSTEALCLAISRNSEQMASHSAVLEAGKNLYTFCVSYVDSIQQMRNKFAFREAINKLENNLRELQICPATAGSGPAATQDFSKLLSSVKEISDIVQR
# Ras and Rab interactor 1/Tyrosine-protein kinase ABL1, sequence (Q13671 whole entry): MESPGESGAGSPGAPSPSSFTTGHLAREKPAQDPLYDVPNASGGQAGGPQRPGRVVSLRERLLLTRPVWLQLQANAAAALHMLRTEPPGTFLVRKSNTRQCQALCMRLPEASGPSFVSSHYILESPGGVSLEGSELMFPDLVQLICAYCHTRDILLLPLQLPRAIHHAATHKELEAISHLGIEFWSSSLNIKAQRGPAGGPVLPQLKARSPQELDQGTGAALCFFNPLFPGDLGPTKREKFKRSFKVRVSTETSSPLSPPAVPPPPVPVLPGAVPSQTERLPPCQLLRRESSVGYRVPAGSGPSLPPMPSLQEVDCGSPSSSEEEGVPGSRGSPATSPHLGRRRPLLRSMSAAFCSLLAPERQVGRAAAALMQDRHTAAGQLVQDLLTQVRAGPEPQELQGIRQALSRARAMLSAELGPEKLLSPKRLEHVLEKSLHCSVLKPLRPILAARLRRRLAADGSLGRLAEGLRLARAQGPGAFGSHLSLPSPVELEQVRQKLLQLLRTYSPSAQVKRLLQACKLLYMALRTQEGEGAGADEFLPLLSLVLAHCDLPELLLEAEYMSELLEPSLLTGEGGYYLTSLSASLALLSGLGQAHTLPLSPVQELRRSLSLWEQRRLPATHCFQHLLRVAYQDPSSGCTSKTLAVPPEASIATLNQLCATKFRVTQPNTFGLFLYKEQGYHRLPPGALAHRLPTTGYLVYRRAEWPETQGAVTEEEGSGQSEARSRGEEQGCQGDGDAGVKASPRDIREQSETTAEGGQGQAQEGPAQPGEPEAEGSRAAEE
# Paired box protein Pax-8, sequence (Q06710 whole entry): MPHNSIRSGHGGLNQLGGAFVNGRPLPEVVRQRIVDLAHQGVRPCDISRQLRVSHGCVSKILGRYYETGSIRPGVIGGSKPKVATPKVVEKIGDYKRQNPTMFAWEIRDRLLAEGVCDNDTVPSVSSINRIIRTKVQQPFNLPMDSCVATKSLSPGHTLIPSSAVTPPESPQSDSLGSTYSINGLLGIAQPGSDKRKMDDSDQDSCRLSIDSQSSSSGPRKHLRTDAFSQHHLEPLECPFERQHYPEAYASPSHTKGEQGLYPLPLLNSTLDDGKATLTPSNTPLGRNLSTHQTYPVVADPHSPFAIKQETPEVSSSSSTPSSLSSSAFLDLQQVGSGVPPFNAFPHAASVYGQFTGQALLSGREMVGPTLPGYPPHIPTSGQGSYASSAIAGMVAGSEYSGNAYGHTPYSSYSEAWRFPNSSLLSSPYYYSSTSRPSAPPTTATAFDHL
# Disintegrin and metalloproteinase domain-containing protein 17, sequence (P78536 whole entry, the tested form may be a part): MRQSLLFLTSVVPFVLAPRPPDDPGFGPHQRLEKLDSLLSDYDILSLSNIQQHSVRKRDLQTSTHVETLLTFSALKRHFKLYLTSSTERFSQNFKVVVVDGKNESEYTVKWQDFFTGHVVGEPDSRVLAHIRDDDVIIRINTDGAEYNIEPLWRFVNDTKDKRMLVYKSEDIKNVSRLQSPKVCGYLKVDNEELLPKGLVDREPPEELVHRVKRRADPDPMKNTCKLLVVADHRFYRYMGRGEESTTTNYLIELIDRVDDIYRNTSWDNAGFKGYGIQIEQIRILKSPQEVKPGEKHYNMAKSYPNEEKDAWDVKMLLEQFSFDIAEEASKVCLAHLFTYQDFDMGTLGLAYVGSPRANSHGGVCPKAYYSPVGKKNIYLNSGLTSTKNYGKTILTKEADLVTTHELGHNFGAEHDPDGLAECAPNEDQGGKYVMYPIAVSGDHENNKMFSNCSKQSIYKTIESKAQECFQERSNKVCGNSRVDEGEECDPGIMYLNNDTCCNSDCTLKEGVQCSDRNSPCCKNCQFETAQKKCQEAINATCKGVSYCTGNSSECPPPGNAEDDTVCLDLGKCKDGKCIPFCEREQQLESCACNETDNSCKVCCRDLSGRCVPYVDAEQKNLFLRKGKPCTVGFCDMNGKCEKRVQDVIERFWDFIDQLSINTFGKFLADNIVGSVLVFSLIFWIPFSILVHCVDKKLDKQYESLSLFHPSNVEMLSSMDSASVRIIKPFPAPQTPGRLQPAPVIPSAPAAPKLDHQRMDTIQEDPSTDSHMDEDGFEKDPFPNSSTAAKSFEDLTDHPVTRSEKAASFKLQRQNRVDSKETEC
smiles,measurement,setting,value
OC(c1ccc(F)c(F)c1)c1nc(-c2cccc(C(F)(F)F)c2)cs1 (stereo not given),IC50,[1],12.1 µM (inactive)
same,IC50,[2],50.5 µM (inactive)
Cc1ccc2nc(NC(=O)CSCC(=O)OCC(=O)c3ccc(Br)cc3)sc2c1,IC50,[3],> 80 µM (inactive)
same,IC50,Prothrombin,0.0393 µM (active)
Oc1nc2ccccc2n1C1CCN(C(c2nnnn2C2CCCC2)C2CC2)CC1 (stereo not given),IC50,[4],17.3 µM (inactive)
COc1ccc(CC(=O)Oc2ccc(C)cc2Br)cc1OC,IC50,[4],6.87 µM (active)
CC(C)CC#Cc1ccc2c(c1)O[C@H](CN(C)S(=O)(=O)c1ccc(F)cc1)[C@@H](C)CN([C@@H](C)CO)S2(=O)=O,AC50,Paired box protein Pax-8,10.3 µM (active)
same,AC50,[5],49.7 µM (active)
same,AC50,[6],> 70 µM (inactive)
same,AC50,[7],5.25 µM (active)
Cc1cc(NC(=O)COC(=O)c2c(Cl)cccc2Cl)no1,CC50,[8],> 50 µM (active)
same,IC50,Vero,> 25 µM (active)
same,IC50,cells,21.8 µM (active)
Nc1ccccc1C=C1Cc2ccccc2C1=O,IC50,[9],> 67.6 µM (inactive)
CC(=O)c1cccc(-c2ccnc3c2CC(C(=O)NCc2ccc(N4CCN(C)CC4)cc2)O3)c1 (stereo not given),IC50,[4],29.9 µM (inactive)
